Source: patent publication US20060128695A1, “Cyclic nucleotide phosphodiesterase inhibitors, preparation and uses” (NEURO3D, priority 2002, published 2006)
Structures can show the parent of a compound that is named as a salt. Where two headings read alike, the source gives them in different places.

Target: T1, PDE2 (Bos taurus, UniProt P14099)
T1 construct: PDE2 was prepared from bovine endothelial cells by the same methods; endogenous in cells; host or cells: bovine endothelial cells
T1 sequence (P14099 1-921): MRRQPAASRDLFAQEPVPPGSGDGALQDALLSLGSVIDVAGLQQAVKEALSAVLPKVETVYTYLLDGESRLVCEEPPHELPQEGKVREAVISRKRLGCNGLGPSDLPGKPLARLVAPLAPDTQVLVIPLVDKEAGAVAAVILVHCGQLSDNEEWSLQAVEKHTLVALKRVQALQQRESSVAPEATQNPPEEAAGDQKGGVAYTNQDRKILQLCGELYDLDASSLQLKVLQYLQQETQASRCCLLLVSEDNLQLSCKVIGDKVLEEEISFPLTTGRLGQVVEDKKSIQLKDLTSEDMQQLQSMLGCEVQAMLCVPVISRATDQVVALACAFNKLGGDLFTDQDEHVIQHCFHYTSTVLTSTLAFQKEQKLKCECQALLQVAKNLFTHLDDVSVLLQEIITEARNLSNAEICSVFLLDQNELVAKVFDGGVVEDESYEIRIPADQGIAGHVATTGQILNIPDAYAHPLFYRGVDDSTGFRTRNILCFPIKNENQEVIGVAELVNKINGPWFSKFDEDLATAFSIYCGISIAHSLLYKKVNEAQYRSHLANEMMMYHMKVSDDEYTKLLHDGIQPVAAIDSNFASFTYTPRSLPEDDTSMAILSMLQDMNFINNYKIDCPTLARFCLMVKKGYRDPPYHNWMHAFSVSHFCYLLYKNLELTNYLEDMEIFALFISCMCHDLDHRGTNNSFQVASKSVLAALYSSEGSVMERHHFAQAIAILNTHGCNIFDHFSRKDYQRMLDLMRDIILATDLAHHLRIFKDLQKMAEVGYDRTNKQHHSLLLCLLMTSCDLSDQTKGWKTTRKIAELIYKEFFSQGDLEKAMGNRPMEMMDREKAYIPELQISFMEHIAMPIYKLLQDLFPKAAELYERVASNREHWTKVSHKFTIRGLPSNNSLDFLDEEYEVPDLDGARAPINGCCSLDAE
Test: Inhibition of PDE2, radioenzymatic phosphodiesterase assay
Format: biochemical, bovine
Settings: for inhibition at 10 µM: read-out: PDE2 percentage inhibition at 10 μM

[1] = 10 μM test compound, PDE2 from bovine endothelial cells

COc1cc2c(cc1OC)N(C)C(=O)CN=C2c1cccc(C#CCNC(=O)OC(C)(C)C)c1 [Compound 6a, Tert-butyl-3-[3-(7,8-dimethoxy-1-methyl-2-oxo-2,3-dihydro-1H-1,4-benzodiazepin-5-yl)phenyl]propynylcarbamate]
IC50: 8.4 µM

CCCCC#Cc1cccc(C2=NCC(=O)N(C)c3cc(OC)c(OC)cc32)c1 [Compound 6b, 7,8-dimethoxy-5-(3′-hex-1-ynylphenyl)-1-N-methyl-1,3-dihydro-2H-1,4-benzodiazepin-2-one]
IC50: 1.06 µM

COc1cc2c(cc1OC)N(C)C(=O)CN=C2c1cccc(C#CCN2CCCCC2)c1 [Compound 6c, 7,8-dimethoxy-1-methyl-5-[3-(3-piperidin-1-ylprop-1-ynyl)phenyl]-1,3-dihydro-2H-1,4-benzodiazepin-2-one]
IC50: 4.3 µM

CCCCCCc1cccc(C2=NCC(=O)N(C)c3cc(OC)c(OC)cc32)c1 [Compound 6e, 7,8-dimethoxy-5-(3′-hexylphenyl)-1-N-methyl-1,3-dihydro-2H-1,4-benzodiazepin-2-one]
IC50: 0.36 µM

COc1cc2c(cc1OC)N(C)C(=O)CN=C2c1cccc(CCCCCC(N)=O)c1 [Compound 6i, 6-[3-(7,8-dimethoxy-1-methyl-2-oxo-2,3-dihydro-1H-1,4-benzodiazepin-5-yl)phenyl]hexanamide]
IC50: 5.6 µM

CCN1C(=O)CN=C(c2cccc(C#CCOCc3ccccc3)c2)c2cc(OC)c(OC)cc21 [Compound 6k, 5-{3-[3-(benzyloxy)prop-1-ynyl]phenyl}-1-ethyl-7,8-dimethoxy-1,3-dihydro-2H-1,4-benzodiazepin-2-one]
inhibition at 10 µM: 69.7%

COc1cc2c(cc1OC)N(C)C(=O)CN=C2c1cccc(-c2cccc(C#N)c2)c1 [Compound 6l, 3′-(7,8-dimethoxy-1-methyl-2-oxo-2,3-dihydro-1H-1,4-benzodiazepin-5-yl)-1,1′-biphenyl-3-carbonitrile]
inhibition at 10 µM: 77.5%

COc1cc2c(cc1OC)N(C)C(=O)CN=C2c1cccc(-c2cccc(C(N)=O)c2)c1 [Compound 6o, 3′-(7,8-dimethoxy-1-methyl-2-oxo-2,3-dihydro-1H-1,4-benzodiazepin-5-yl)-1,1′-biphenyl-3-carboxamide]
inhibition at 10 µM: 79.3%

COc1cc2c(cc1OC)N(C)C(=O)C(Cc1ccc(Cl)c(Cl)c1)N=C2c1cccc(C#N)c1 (stereo not shown) [Compound 7b, 3-[3-(3,4-dichlorobenzyl)-7,8-dimethoxy-1-methyl-2-oxo-2,3-dihydro-1H-1,4-benzodiazepin-5-yl]benzonitrile]
IC50: 5.5 µM

COc1cc2c(cc1OC)N(C)C(=O)C(C)N=C2c1cccc(C(F)(F)F)c1 (stereo not shown) [Compound 7c, 7,8-dimethoxy-1,3-dimethyl-5-(3-trifluoromethylphenyl)-1,3-dihydro-2H-1,4-benzodiazepin-2-one]
inhibition at 10 µM: 41%

COc1cc2c(cc1OC)N(C)C(=O)C(C)N=C2c1cccc(C#N)c1 (stereo not shown) [Compound 7d, 3-(7,8-dimethoxy-1,3-dimethyl-2-oxo-2,3-dihydro-1H-1,4-benzodiazepin-5-yl)benzonitrile]
inhibition at 10 µM: 33.8%

COc1cc2c(cc1OC)N(C)C(=O)CN=C2c1cccc(CN)c1 [Compound 8a, 5-[3-(aminomethyl)phenyl]-7,8-dimethoxy-1-methyl-1,3-dihydro-2H-1,4-benzodiazepin-2-one]
IC50: 9 µM

COc1cc2c(cc1OC)N(C)C(=O)CN=C2c1cccc(CNC(C)=O)c1 [Compound 8b, N-[3-(7,8-dimethoxy-1-methyl-2-oxo-2,3-dihydro-1H-1,4-benzodiazepin-5-yl)benzyl]acetamide]
inhibition at 10 µM [1]: 27.2%

COc1cc2c(cc1OC)N(C)C(=O)CN=C2c1cccc(C(N)=S)c1 [Compound 9a, 3-(7,8-dimethoxy-1-methyl-2-oxo-2,3-dihydro-1H-1,4-benzodiazepin-5-yl)thiobenzamide]
inhibition at 10 µM [1]: 85%

COc1cc2c(cc1OC)N(C)C(=O)CN=C2c1cccc(-c2nc(-c3ccccc3)cs2)c1 [Compound 9b, 7,8-dimethoxy-1-methyl-5-[3-(4-phenyl-1,3-thiazol-2-yl)phenyl]-1,3-dihydro-2H-1,4-benzodiazepin-2-one]
inhibition at 10 µM: 91.4%

COc1cc2c(cc1OC)C(c1cccc(C#N)c1)=NCC(=S)N2 [Compound 10d, 5-(3-cyanophenyl)-7,8-dimethoxy-1,3-dihydro-2H-1,4-benzodiazepin-2-thione]
inhibition at 10 µM: 5.5%

COc1cc2c(cc1OC)-n1ccnc1CN=C2c1cccc(C#N)c1 [Compound 11a, 3-(8,9-dimethoxy-4H-imidazo[1,2-a][1,4]benzodiazepin-6-yl)benzonitrile]
inhibition at 10 µM: 43%

COc1cc2c(cc1OC)-n1ccnc1CN=C2c1cccc(C(N)=O)c1 [Compound 11b, 3-(8,9-dimethoxy-4H-imidazo[1,2-a] [1,4]benzodiazepin-6-yl)benzamide]
inhibition at 10 µM [1]: 69.3%

CNC1=Nc2cc(OC)c(OC)cc2C(c2cccc(C#N)c2)=NC1 [Compound 12a, 3-(7,8-dimethoxy-2-methylamino-1,3-dihydro-3H-1,4-benzodiazepin-5-yl)benzonitrile]
PDE2 percentage inhibition at 10 μM [1]: 16%

COc1cc2c(cc1OC)N(C)C(=O)CN=C2c1cccc([N+](=O)[O-])c1 [Compound 17c, 7,8-dimethoxy-1-methyl-5-(3-nitrophenyl)-1,3-dihydro-1,4-benzodiazepin-2-one]
IC50: 6.1 µM

COc1cc2c(cc1OC)N(C)C(=O)CN=C2c1cccc(C(C)=O)c1 [Compound 17e, 5-(3-acetylphenyl)-7,8-dimethoxy-1-methyl-1,3-dihydro-1,4-benzodiazepin-2-one]
IC50: 6.7 µM

COc1cc2c(cc1OC)N(C)C(=O)CN=C2c1cncc2ccccc12 [Compound 17f, 5-(4-isoquinolinyl)-7,8-dimethoxy-1-methyl-1,3-dihydro-1,4-benzodiazepin-2-one]
IC50: 4.7 µM

CCCC1N=C(c2cccc(CO)c2)c2cc(OC)c(OC)cc2N(C)C1=O (stereo not shown) [Compound 17h, 7,8-dimethoxy-5-(3-hydroxymethylphenyl)-1-methyl-3-propyl-1,3-dihydro-2H-1,4-benzodiazepin-2-one]
inhibition at 10 µM: 9.2%

COc1cc2c(cc1OC)N(C)C(=O)CN=C2c1cccc(N)c1 [Compound 17i, 5-(3-aminophenyl)-7,8-dimethoxy-1-methyl-1,3-dihydro-2H-1,4-benzodiazepin-2-one]
inhibition at 10 µM: 40%

COc1cc2c(cc1OC)N(C)C(=O)CN=C2c1ccc(Cl)c(Cl)c1 [Compound 17j, 5-(3,4-dichlorophenyl)-7,8-dimethoxy-1-methyl-1,3-dihydro-1,4-benzodiazepin-2-one]
IC50: 7 µM

COc1cc2c(cc1OC)N(C)C(=O)CN=C2c1cccc(C)c1 [Compound 17k, 7,8-dimethoxy-1-methyl-5-(3-methylphenyl)-1,3-dihydro-1,4-benzodiazepin-2-one]
IC50: 3.7 µM

COc1cc2c(cc1OC)N(C)C(=O)CN=C2c1cccc(C=O)c1 [Compound 17l, 5-(3-formylphenyl)-7,8-dimethoxy-1-methyl-1,3-dihydro-1,4-benzodiazepin-2-one]
IC50: 5 µM

COc1cc2c(cc1OC)N(C)C(=O)CN=C2c1cccc(CNCc2ccccc2)c1 [Compound 17m, 5-[3-(benzylaminomethyl)phenyl]-7,8-dimethoxy-1-methyl-1,3-dihydro-2H-1,4-benzodiazepin-2-one hydrochloride]
IC50: 4.8 µM

COc1cc2c(cc1OC)N(C)C(=O)CN=C2c1cccc(NC(C)=O)c1 [Compound 17n, N-[3-(7,8-dimethoxy-1-methyl-2-oxo-2,3-dihydro-1H-1,4-benzodiazepin-5-yl)phenyl]acetamide]
inhibition at 10 µM [1]: 38%

COc1cc2c(cc1OC)N(C)C(=O)CN=C2c1ccc2c(c1)OCO2 [Compound 17o, 7,8-dimethoxy-1-methyl-5-(3,4-methylenedioxyphenyl)-1,3-dihydro-2H-1,4-benzodiazepin-2-one]
IC50: 7.8 µM

COc1cc2c(cc1O)C(c1cccc(C#N)c1)=NCC(=O)N2 [Compound 22b, 3-(7-hydroxy-8-methoxy-2-oxo-2,3-dihydro-1H-1,4-benzodiazepin-5-yl)benzonitrile]
inhibition at 10 µM: 3.8%

COc1cc2c(c(Br)c1O)C(c1cccc(C#N)c1)=NCC(=O)N2 [Compound 23b, 3-(6-bromo-7-hydroxy-8-methoxy-2-oxo-2,3-dihydro-1H-1,4-benzodiazepin-5-yl)benzonitrile]
inhibition at 10 µM: 20.1%

COc1cc2c(c(Br)c1OC)C(c1cccc(C#N)c1)=NCC(=O)N2C [Compound 24b, 3-(6-bromo-7,8-dimethoxy-1-methyl-2-oxo-2,3-dihydro-1H-1,4-benzodiazepin-5-yl)benzonitrile]
IC50: 3.3 µM

COc1cc2c(c(-c3ccccc3)c1OC)N(C)C(=O)CN=C2c1cccc(C#N)c1 [Compound 25a, 3-(7,8-dimethoxy-1-methyl-2-oxo-9-phenyl-2,3-dihydro-1H-1,4-benzodiazepin-5-yl)benzonitrile]
inhibition at 10 µM: 0%
